A value given as a limit tells only on which side of the number the result lay.

The target in the assay is T1, USP25 (USP25-His6, Boston Biochem E-546) (Homo sapiens, UniProt Q9UHP3).
T1 construct: His6; purchased Boston Biochem E-546
T1 sequence (Q9UHP3 1-1055): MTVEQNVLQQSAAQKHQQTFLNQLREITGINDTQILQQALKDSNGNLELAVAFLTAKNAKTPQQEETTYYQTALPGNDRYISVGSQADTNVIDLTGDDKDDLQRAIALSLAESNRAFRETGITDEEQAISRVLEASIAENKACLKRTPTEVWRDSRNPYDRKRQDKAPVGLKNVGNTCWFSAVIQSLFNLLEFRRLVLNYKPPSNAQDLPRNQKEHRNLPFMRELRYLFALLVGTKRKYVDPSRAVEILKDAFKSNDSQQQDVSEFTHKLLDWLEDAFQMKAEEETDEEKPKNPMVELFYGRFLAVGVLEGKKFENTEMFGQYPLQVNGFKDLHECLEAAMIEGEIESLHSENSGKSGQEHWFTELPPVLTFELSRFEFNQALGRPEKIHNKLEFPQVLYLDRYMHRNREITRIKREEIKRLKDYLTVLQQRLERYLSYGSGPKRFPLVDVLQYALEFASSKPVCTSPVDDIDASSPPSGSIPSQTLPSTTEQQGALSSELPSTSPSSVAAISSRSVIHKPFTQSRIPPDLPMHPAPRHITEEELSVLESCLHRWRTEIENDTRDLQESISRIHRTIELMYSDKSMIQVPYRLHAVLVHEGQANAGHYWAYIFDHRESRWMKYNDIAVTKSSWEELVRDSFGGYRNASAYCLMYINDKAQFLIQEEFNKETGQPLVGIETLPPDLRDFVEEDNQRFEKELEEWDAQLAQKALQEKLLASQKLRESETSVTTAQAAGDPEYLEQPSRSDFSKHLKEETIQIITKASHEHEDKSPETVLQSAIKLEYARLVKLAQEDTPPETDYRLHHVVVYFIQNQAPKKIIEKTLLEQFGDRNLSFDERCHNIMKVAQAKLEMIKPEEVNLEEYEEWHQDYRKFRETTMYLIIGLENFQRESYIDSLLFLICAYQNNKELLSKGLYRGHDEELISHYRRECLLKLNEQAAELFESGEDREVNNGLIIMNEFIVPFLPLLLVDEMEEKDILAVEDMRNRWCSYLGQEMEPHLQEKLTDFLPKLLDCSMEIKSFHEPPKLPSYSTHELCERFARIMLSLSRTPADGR
The assay can be described thus: Ubiquitin-Rhodamine 110 Assay for USP25 Activity, Example A-2. Format: biochemical. To be noted: Ubiquitin-Rhodamine 110 assay, Example A-2; read-out: USP25 A-2 IC50 range. The method, boiled down: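 USP25-His6 (75 pM) was preincubated with compound (10-point, 3-fold series, 25 μM to 1.3 nM) for 30 min in 20 mM Tris-HCl pH 8.0, 3 mM BME, 0.03% BGG, 0.01% Triton X-100. Ub-Rh110 (25 nM, <<Km) was then added for 45 min at room temperature, citric acid-stopped, and fluorescence read at 485/535 nm.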
Take `Cc1ccc2c(N)c(C(=O)N[C@H]3COc4cc(N5C[C@@H](N)C(F)(F)C5)ccc4C3)sc2n1` [Example 257, 3-amino-N-[(3R)-7-[(4R)-4-amino-3,3-difluoropyrrolidin-1-yl]-3,4-dihydro-2H-1-benzopyran-3-yl]-6-methylthieno[2,3-b]pyridine-2-carboxamide]: the IC50 lay in the range of 50 to 200 nM. As for `CO[C@H]1CN(c2cc3c(c(F)c2C#N)C[C@@H](NC(=O)c2sc4nc(C)cnc4c2N)CO3)C[C@@H]1N` [Example 199, 7-amino-N-[(3R)-7-[(3S,4S)-3-amino-4-methoxypyrrolidin-1-yl]-6-cyano-5-fluoro-3,4-dihydro-2H-1-benzopyran-3-yl]-3-methylthieno[2,3-b]pyrazine-6-carboxamide], the IC50 was in the range of 50 to 200 nM. Turning to `Cc1ccc2c(N)c(C(=O)N[C@@H]3Cc4ccc(N5CCNCC5)nc4[C@@H](C)C3)sc2n1` (single isomer, unassigned) [Example 205], the concentration for half-maximal inhibition (IC50) is greater than 2000 nM. Turning to `Cc1cc(C)c2c(N)c(C(=O)N[C@H]3COc4cc(N5CC[C@@H]6CNC[C@@H]65)cc(F)c4C3)sc2n1` (single isomer, unassigned) [Example 223], the IC50 was in the range of 50 to 200 nM. On to `Cc1ccc2c(N)c(C(=O)N[C@H]3COc4cc(N5C[C@H](N)CC[C@H]5C(F)(F)F)ccc4C3)sc2n1` [Example 247, 3-amino-N-[(3R)-7-[(2S,5R)-5-amino-2-(trifluoromethyl)piperidin-1-yl]-3,4-dihydro-2H-1-benzopyran-3-yl]-6-methylthieno[2,3-b]pyridine-2-carboxamide], for which the IC50 lay within 50 to 200 nM. Turning to `Cc1ccc2c(N)c(C(=O)N[C@H]3COc4cc(N5CCC[C@@H]6CNC[C@@H]65)ccc4C3)sc2n1` [Example 242, N-[(3R)-7-[(4aR,7aR)-octahydro-1H-pyrrolo[3,4-b]pyridin-1-yl]-3 ,4-dihydro-2H-1-benzopyran-3-yl]-3-amino-6-methylthieno[2,3-b]pyridine-2-carboxamide], the IC50 lay in the range of 50 to 200 nM.

With `CO[C@H]1CN(c2nc3c(cc2F)C[C@@H](NC(=O)c2sc4nc(C)ccc4c2N)CC3)C[C@@H]1N` [Example 183, 3-amino-N-[(6S)-2-[(3S,4S)-3-amino-4-methoxypyrrolidin-1-yl]-3-fluoro-5,6,7,8-tetrahydroquinolin-6-yl]-6-methylthieno[2,3-b]pyridine-2-carboxamide], the IC50 is greater than 2000 nM.

In the case of `N#Cc1c(N2CC3CCC(C2)N3)cc(F)c2c1OC[C@H](NC(=O)c1cnc3c(c1)[C@@H]1C[C@@H]1CN3)C2` [Example 228, (6aS,7aR)-N-[(3R)-8-cyano-7-{3,8-diazabicyclo[3.2.1]octan-3-yl}-5-fluoro-3,4-dihydro-2H-1-benzopyran-3-yl]-5H,6H,6aH,7H,7aH-cyclopropa[c]1,8-naphthyridine-2-carboxamide], the IC50 was in the range of 200 to 2000 nM. As to `O=C(N[C@H]1CCc2cc(N3CC4CCC(C3)N4)cc(F)c2C1)c1cnc2c(c1)[C@@H]1C[C@@H]1CN2` [Example 191, (6aS,7aR)-N-[(2S)-6-{3,8-diazabicyclo[3.2.1]octan-3-yl}-8-fluoro-1,2,3,4-tetrahydronaphthalen-2-yl]-5H,6H,6aH,7H,7aH-cyclopropa[c]1,8-naphthyridine-2-carboxamide], the IC50 was greater than 2000 nM. As to `N#Cc1c(N2CC3CCC(C2)N3)cc(F)c2c1CC[C@H](NC(=O)c1cnc3c(c1)[C@H]1C[C@H]1CN3)C2` [Example 196, (6aR,7aS)-N-[(2S)-5-cyano-6-{3,8-diazabicyclo[3.2.1]octan-3-yl}-8-fluoro-1,2,3,4-tetrahydronaphthalen-2-yl]-5H,6H,6aH,7H,7aH-cyclopropa[c]1,8-naphthyridine-2-carboxamide], the half-maximal inhibitory concentration (IC50) is greater than 2000 nM. With `Cc1ccc2c(N)c(C(=O)N[C@H]3COc4cc(N5CCC[C@H]6CNC[C@H]65)ccc4C3)sc2n1` [Example 243, N-[(3R)-7-[(4aS,7aS)-octahydro-1H-pyrrolo[3,4-b]pyridin-1-yl]-3,4-dihydro-2H-1-benzopyran-3-yl]-3-amino-6-methylthieno[2,3-b]pyridine-2-carboxamide], the IC50 lay within 1 to 50 nM.

Turning to `CCO[C@H]1CN(c2ccc3c(n2)CC[C@H](NC(=O)c2sc4nc(C)ccc4c2N)C3)C[C@H]1N` [Example 255, 3-amino-N-[(6S)-2-[(3R,4S)-3-amino-4-ethoxypyrrolidin-1-yl]-5,6,7,8-tetrahydroquinolin-6-yl]-6-methylthieno[2,3-b]pyridine-2-carboxamide], the IC50 was greater than 2000 nM. Take `N#Cc1c(N2CC3CCC(C2)N3)cc(F)c2c1CC[C@@H](NC(=O)c1cnc3c(c1)[C@H]1C[C@H]1CN3)C2` [Example 198, (6aR,7aS)-N-[(2R)-5-cyano-6-{3,8-diazabicyclo[3.2.1]octan-3-yl}-8-fluoro-1,2,3,4-tetrahydronaphthalen-2-yl]-5H,6H,6aH,7H,7aH-cyclopropa[c]1,8-naphthyridine-2-carboxamide]: the IC50 lay in the range of 200 to 2000 nM.

Turning to `CO[C@H]1CN(c2ccc3c(c2)CC[C@H](NC(=O)c2cnc4c(c2)C2CC2CN4)C3)C[C@@H]1N` (stereo partly drawn) [Example 188, N-[(2S)-6-[(3S,4S)-3-amino-4-methoxypyrrolidin-1-yl]-1,2,3,4-tetrahydronaphthalen-2-yl]-5H,6H,6aH,7H,7aH-cyclopropa[c]1,8-naphthyridine-2-carboxamide], the IC50 was greater than 2000 nM. As for `Cc1ccc2c(N)c(C(=O)N[C@H]3COc4cc(N5CC[C@@H]6CC[C@H](N)C[C@@H]65)ccc4C3)sc2n1` [Example 234, N-[(3R)-7-[(3aS,6S,7aS)-6-amino-octahydro-1H-indol-1-yl]-3,4-dihydro-2H-1-benzopyran-3-yl]-3-amino-6-methylthieno[2,3-b]pyridine-2-carboxamide], the IC50 fell in the range of 50 to 200 nM. Turning to `Cc1ccc2c(N)c(C(=O)N[C@H]3COc4cc(N5CC6CCC[C@@]6(N)C5)ccc4C3)sc2n1` (stereo partly drawn) [Example 248, N-[(3R)-7-[(3aS)-3a-amino-octahydrocyclopenta[c]pyrrol-2-yl]-3,4-dihydro-2H-1-benzopyran-3-yl]-3-amino-6-methylthieno[2,3-b]pyridine-2-carboxamide], the IC50 lay within 200 to 2000 nM. Consider `Cc1cc(C)c2c(N)c(C(=O)N[C@H]3CCc4nc(N5CC[C@H]6CNC[C@H]65)ccc4C3)sc2n1` [Example 218, N-[(6S)-2-[(3aS 6aS)-octahydropyrrolo[2,3-c]pyrrol-1-yl]-5,6,7,8-tetrahydroquinolin-6-yl]-3-amino-4,6-dimethylthieno[2,3-b]pyridine-2-carboxamide], for which the IC50 was 200 to 2000 nM.

As for `Cc1ccc2c(N)c(C(=O)N[C@H]3COc4cc(N5C[C@@H](N)C(C)(C)C5)ccc4C3)sc2n1` [Example 215, 3-amino-N-[(3R)-7-[(4S)-4-amino-3,3-dimethylpyrrolidin-1-yl]-3,4-dihydro-2H-1-benzopyran-3-yl]-6-methylthieno[2,3-b]pyridine-2-carboxamide], the IC50 was 50 to 200 nM. `Cc1ccc2c(N)c(C(=O)N[C@H]3CCc4nc(N5CC[C@@H]6CNC[C@@H]65)ccc4C3)sc2n1` [Example 217, N-[(6S)-2-[(3aR,6aR)-octahydropyrrolo[2,3-c]pyrrol-1-yl]-5,6,7,8-tetrahydroquinolin-6-yl]-3-amino-6-methylthieno[2,3-b]pyridine-2-carboxamide]: the IC50 fell in the range of 50 to 200 nM.

The values above are taken from patent US11524966B1 (Valo Early Discovery, Inc., priority 2017, dated 2022).
